Experimental data from patent EP0888346B1, “CORALYNE ANALOGS AS TOPOISOMERASE INHIBITORS” (RUTGERS, THE STATE UNIVERSITY OF NEW JERSEY, priority 1996, dated 1997).

Key:
[1] = test system: yeast cells expressing functional yeast topoisomerase I; assay: Yeast cytotoxicity assay, strain expressing wild-type yeast topo I; format: cell-based, S. cerevisiae; conditions: plates with 1 µM drug (camptothecin 0.5 µM), 3 days at 30°C
Description: (§1) It has been established that yeast can survive when topoisomerase I function is obliterated, and that the topoisomerase I poisons only kill cells having a functional topoisomerase I (Bjornsti et al. Cancer Res. 49:6318-6323 (1989)).
(§2) The topoisomerase I-specific in vivo cytotoxicity assay was adapted from Knab et al. (Knab et al., J. Biol. Chem. 268:22322-22330 (1993)). In this system, various topo I genes cloned into the single copy yeast plasmid vector, YCpGAL1 (Knab et al., J. Biol. Chem. 268:22322-22330 (1993)), are expressed under the control of the GAL1 promoter in the JN2-134 strain of S. cerevisiae (MATa, rad52::LEU2, trp1, ade2-1,his7, ura3-52, isel, top1-1, leu2) (Bjornsti et al., Cancer Res. 49:6318-6323 (1989)). The topo I constructs in the vector are, respectively, the wild-type yeast topo I (YCpGAL-ScTOP1), a non-functional yeast topo I where the active site tyrosine-727 is mutated to a phenylalanine (YCpGAL1-Sctop1Y727F) (Knab et al., J. Biol. Chem. 268:22322-22330 (1993)), and the wild type human topoisomerase I (YCpGAL-hTOP1) (Bjornsti et al., Cancer Res. 49:6318-6323 (1989)). To qualitatively test the cytotoxicity and the topo I specificity of the drugs, yeast cells containing the specific plasmid were serially diluted (5-fold) and were grown in dropout medium supplemented with uracil and 2% galactose In addition, the plates contained: A: Control, no drug in the plate; B: Camptothecin (CPT), 0.5 µM; C: Coralyne, 1 µM; D: Methylenedioxy-dihydro-demethyl-coralyne (MDD-Coralyne), 1 µM, and E: Nitidine, 1 µM. The plates were grown for 3 days at 30°C to assess the lethal effect of the different compounds on the various topoisomerase I enzymes expressed in S. cerevisiae.and the drug being tested.

[2] = test system: yeast cells expressing non-functional yeast topoisomerase I; assay: Yeast cytotoxicity assay, strain expressing non-functional yeast topo I; format: cell-based, S. cerevisiae; conditions: plates with 1 µM drug (camptothecin 0.5 µM), 3 days at 30°C
Description: as §1, §2

[3] = test system: yeast cells expressing human topoisomerase I; assay: Yeast cytotoxicity assay, strain expressing human topo I; format: cell-based, S. cerevisiae; conditions: plates with 1 µM drug (camptothecin 0.5 µM), 3 days at 30°C
Description: as §1, §2

[4] = target: T1, recombinant CPT-K5 topoisomerase I (Homo sapiens, UniProt P11387, D533G); assay: Cleavage assay with camptothecin-resistant mutant topo I; format: biochemical; conditions: relative to wildtype human topoisomerase I
T1 construct: 15 amino acid vector-derived fusion (pET-11a leader); made in house; host or cells: E. coli BL21(DE3)
T1 sequence (P11387 1-765 D533G): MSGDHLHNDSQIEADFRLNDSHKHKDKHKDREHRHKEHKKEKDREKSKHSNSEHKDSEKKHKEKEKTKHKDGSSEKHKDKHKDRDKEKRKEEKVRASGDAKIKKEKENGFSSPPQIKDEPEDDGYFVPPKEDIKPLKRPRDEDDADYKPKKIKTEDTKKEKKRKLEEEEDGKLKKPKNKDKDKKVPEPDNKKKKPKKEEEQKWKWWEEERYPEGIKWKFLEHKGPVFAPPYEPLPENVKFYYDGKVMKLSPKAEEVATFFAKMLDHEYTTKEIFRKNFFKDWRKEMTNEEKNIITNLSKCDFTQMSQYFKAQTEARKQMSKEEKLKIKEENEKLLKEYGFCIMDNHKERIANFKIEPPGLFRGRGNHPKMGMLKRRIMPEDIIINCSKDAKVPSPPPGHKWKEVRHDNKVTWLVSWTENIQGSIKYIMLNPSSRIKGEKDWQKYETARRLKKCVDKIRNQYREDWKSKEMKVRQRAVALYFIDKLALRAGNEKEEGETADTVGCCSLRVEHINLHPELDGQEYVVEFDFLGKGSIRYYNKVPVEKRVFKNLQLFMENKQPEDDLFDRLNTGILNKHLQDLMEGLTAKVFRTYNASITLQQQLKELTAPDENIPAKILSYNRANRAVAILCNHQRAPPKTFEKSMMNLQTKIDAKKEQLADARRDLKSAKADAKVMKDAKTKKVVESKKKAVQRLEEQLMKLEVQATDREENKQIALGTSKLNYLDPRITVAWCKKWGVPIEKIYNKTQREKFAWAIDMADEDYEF
Protocol: Cleavage assays for the recombinant topoisomerases I and calf thymus topoisomerases I and II were done as described (Liu et al., J. Biol. Chem. 258:15365-15370 (1983)). The plasmid YEpG DNA used for the cleavage assays was prepared and labeled at its 3'-end using the published procedures.

[5] = test system: Human lymphoblast RPMI 8402 cells; assay: MTT-microtiter plate tetrazolinium cytotoxicity assay (MTA); format: cell-based; conditions: Homo sapiens, RPMI 8402, 96 h, read-out: Cytotoxicity RPMI 8402
Description: (§3) The results were plotted and the IC50 then measured.

[6] = test system: human epidermoid carcinoma KB 3-1 cell line; assay: MTA cytotoxicity assay, epidermoid carcinoma cells; format: cell-based; conditions: KB 3-1, 96 h, read-out: Cytotoxicity KB3-1
Protocol: as §3
(§4) The coralyne analog 7c was tested for its effectiveness against glioblastoma cells. The assay used was similar to that described above for the RPMI-8402 cell line. The results are shown in table 2 below which compares the effect of Compound 7c against the leukemia cell line (RPMI 8402), epidermal carncinoma (KB3-1) and glioblastoma (SF-268): Table 2

[7] = test system: glioblastoma cell line SF-268; assay: MTA cytotoxicity assay, glioblastoma cells; format: cell-based; conditions: Homo sapiens, SF-268, 96 h, read-out: Cytotoxicity SF-268
Protocol: as §3, §4

Structure (SMILES)	cytotoxicity against yeast cells expressing functional yeast topoisomerase I (in words) [1]	cytotoxicity against yeast cells expressing non-functional yeast topoisomerase I (in words) [2]	cytotoxicity against yeast cells expressing human topoisomerase I (in words) [3]	resistance of recombinant CPT-K5 topoisomerase I to the drug [4]	IC50 [5]	IC50 [6]	IC50 [7]
COc1cc2c[n+](C)c3c4cc5c(cc4ccc3c2cc1OC)OCO5 [Nitidine, nitidine]	not cytotoxic	not cytotoxic	highly cytotoxic	less than 10 fold			
COc1cc2cc3c4cc(OC)c(OC)cc4cc[n+]3c(C)c2cc1OC [coralyne]	resistant	no cytotoxicity	no cytotoxicity		3 µg/mL	0.9 µg/mL	0.1 µg/mL
